These results are taken from PMC4637315, “Hydroxycarboxylic acid receptors are essential for breast cancer cells to control their lipid/fatty acid metabolism” (Oncotarget, 2015).

Each structure is given as a SMILES string.

Common to all, as to format: cell-based
Assay [1] has as its target T1, HCA3 (Homo sapiens, UniProt P49019).
T1 construct: gene HCAR3; endogenous receptor in BT-474 cells
The experiment in a line: cAMP decrease in BT-474 cells, blocked by pertussis toxin.

Assay [2] deals with T2, HCA1 (Homo sapiens, UniProt Q9BXC0).
T2 construct: gene HCAR1; endogenous receptor in BT-474 cells
T2 sequence (Q9BXC0 whole entry): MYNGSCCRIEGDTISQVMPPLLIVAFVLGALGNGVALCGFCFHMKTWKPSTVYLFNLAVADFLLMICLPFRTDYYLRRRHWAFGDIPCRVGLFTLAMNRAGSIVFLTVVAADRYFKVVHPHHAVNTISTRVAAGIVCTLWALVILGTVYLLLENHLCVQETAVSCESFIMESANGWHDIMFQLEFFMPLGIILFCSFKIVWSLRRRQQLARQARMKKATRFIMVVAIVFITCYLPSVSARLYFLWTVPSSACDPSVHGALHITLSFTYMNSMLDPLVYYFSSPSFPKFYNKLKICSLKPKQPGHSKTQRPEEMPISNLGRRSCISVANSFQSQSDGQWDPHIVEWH
The description is as above.

For assay [3], the target named is T1, HCA3. Kind of assay: AlphaScreen cAMP assay, inhibition of forskolin-induced cAMP in BT-474 cells, pertussis toxin sensitive. A general note: In Alpha technology, singlet oxygen from a donor bead excites a nearby acceptor bead.
Assay [4] concerns the target T2, HCA1. The assay is described as above.
In assay [5] the target is T3, HCA2 (Homo sapiens, UniProt Q8TDS4).
T3 construct: gene HCAR2; endogenous receptor in BT-474 cells
T3 sequence (Q8TDS4 whole entry): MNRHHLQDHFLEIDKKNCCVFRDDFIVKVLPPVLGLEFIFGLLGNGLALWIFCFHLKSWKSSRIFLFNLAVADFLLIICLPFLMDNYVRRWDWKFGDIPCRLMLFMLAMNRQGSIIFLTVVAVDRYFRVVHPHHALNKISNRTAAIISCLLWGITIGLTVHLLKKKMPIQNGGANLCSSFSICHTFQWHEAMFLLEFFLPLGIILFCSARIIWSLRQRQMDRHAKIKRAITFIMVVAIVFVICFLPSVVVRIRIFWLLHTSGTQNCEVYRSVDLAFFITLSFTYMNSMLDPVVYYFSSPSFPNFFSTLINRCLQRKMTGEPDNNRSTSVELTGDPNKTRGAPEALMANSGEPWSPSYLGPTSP
The description is as above.

For orientation: EC50 means the midpoint of the concentration-response curve. Low values mean a more potent agent, high ones a less potent agent.

T1 sequence (P49019 whole entry): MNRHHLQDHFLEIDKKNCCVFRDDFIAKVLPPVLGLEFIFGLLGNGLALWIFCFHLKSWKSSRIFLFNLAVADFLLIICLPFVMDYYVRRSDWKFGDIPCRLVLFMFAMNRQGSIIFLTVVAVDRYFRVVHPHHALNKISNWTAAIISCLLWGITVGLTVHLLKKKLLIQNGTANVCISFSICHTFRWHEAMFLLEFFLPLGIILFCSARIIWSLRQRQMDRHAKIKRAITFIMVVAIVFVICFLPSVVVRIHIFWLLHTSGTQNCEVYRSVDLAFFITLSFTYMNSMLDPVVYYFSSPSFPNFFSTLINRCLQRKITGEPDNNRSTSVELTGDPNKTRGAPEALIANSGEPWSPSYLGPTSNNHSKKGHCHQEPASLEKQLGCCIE

`CC(C)n1nnc2cc(C(=O)O)ccc21` [IPBT-5CA, 1-(1-methylethyl)-1H-benzotriazole-5-carboxylic acid]: the “cAMP decrease in BT-474 cells, blocked by pertussis toxin” value in assay [1] is on record as “synthetic HCA agonist-induced decrease in intracellular cAMP levels in BT-474 cells (Figure 3D-F)”. On to `O=C(O)c1cc(O)cc(O)c1` [3,5 DHB, 3,5-dihydroxybenzoic acid], for which the “cAMP decrease in BT-474 cells, blocked by pertussis toxin” value in assay [2] is given as “synthetic HCA agonist-induced decrease in intracellular cAMP levels in BT-474 cells (Figure 3D-F)”. For the compound `CCCCCC(O)CC(=O)O` (centres unmarked) [3HO, 3-hydroxyoctanoate], the midpoint of the response in assay [3], the EC50, lay at 9.5 µM. With `C[C@H](O)C(=O)O` [lactate], in assay [4], the EC50 amounted to 3.4 mM.

As to `CC(O)CC(=O)O` (centres unmarked) [3HB, 3-hydroxybutyrate], the EC50 in assay [5] was 460 µM.
